Reference: patent publication US9376424B2, “Methods for treating post traumatic stress disorder” (AZEVAN PHARMACEUTICALS, INC., priority 2010, dated 2016)
Entries after “also recorded” stand apart in the source; their conditions may differ. Each block holds one compound with its values, some of them ahead of it.

Assays:
human V1a receptor = biological target: T1, human V1a receptor (Homo sapiens, UniProt P37288); assay: Inhibition of phosphatidylinositol turnover (V1a); assay type: cell-based; settings: V1a
T1 construct: host or cells: CHO cells
T1 sequence (P37288 whole entry): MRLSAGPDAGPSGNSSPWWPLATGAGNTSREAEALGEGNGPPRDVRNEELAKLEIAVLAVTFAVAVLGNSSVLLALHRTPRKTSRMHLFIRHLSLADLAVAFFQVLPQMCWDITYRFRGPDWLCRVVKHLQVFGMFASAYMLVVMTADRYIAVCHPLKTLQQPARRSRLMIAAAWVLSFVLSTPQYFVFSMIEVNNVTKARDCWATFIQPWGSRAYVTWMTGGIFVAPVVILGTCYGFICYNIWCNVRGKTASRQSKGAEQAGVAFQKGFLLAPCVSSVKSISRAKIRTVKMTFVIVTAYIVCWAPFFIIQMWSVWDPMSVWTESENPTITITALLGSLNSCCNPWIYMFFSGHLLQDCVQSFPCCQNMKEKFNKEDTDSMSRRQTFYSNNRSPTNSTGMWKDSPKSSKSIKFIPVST
From the text: Inhibition of phosphatidylinositol turnover (V1a). The physiological effects of vasopressin are mediated through specific G-protein coupled receptors. The vasopressin V1a receptor is coupled to the Gq/G11 family of G proteins and mediates phosphatidylinositol turnover. The agonist or antagonist character of the compounds of the invention may be determined by their ability to inhibit vasopressin-mediated turnover of phosphatidylinositol by the procedure described in the following paragraphs.
Cell culture and labeling of cells. Three days prior to the assay, near-confluent cultures of hV1a or hV1b cells were dissociated and seeded in 6-well tissue culture plates, about 100 wells being seeded from each 75 cm^2 flask (equivalent to 12:1 split ratio). Each well contained 1 mL of growth medium with 2 μCi of [^3H]myo-inositol (American Radiolabeled Chemicals, St. Louis, Mo., USA).
Incubations (V1a and V1b). All assays were in triplicate except for basal and 10 nM AVP (both n=6). AVP ((arginine vasopressin), Peninsula Labs, Belmont, Calif., USA (#8103)) was dissolved in 0.1N acetic acid. Test agents were dissolved in DMSO and diluted in DMSO to 200 times the final test concentration. […] The order of incubations was randomized. Incubations were initiated by removing the prelabeling medium, washing the monolayer once with 1 mL of 0.9% NaCl, and transferring the contents of the assay tubes to corresponding wells. The plates were incubated for 1 hour at 37° C. Incubations were terminated by removing the incubation medium and adding 500 μL of ice cold 5% (w/v) trichloroacetic acid and allowing the wells to stand for 15 min.
Measurement of [^3H]inositol phosphates (V1a and V1b). BioRad Poly-Prep Econo-Columns were packed with 0.3 mL of AG 1×−8 100-200 formate form resin. Resin was mixed 1:1 with water and 0.6 mL added to each column. Columns were then washed with 10 mL water. Scintillation vials (20 mL) were placed under each column. For each well, the contents were transferred to a minicolumn, after which the well was washed with 0.5 mL distilled water, which was also added to the minicolumn. The columns were then washed twice with 5 mL of 5 mM myo-inositol to elute free inositol. Aliquots (1 mL) were transferred to 20 mL scintillation vials and 10 mL of Beckman Ready Protein Plus added. After the myo-inositol wash was complete, empty scintillation vials were placed under the columns, and [^3H]inositol phosphates were eluted with three additions of 1 mL 0.5 M ammonium formate containing 0.1 N formic acid. Elution conditions were optimized to recover inositol mono-, bis-, and trisphosphates, without eluting the more metabolically inert tetrakis-, pentakis-, and hexakis-phosphates. To each sample was added 10 mL of a high salt capacity scintillation fluid such as Tru-Count High Salt Capacity or Packard Hionic-Fluor. Inositol lipids were measured by adding 1 mL of 2% sodium dodecyl sulfate (SDS) to each well, allowing the wells to stand for at least 30 min., and transferring the solution to 20 mL scintillation vials, to which 10 mL Beckman Ready Protein Plus scintillation fluid was then added. Samples were counted in a Beckman LS 3801 liquid scintillation counter for 10 min. Total inositol incorporation for each well was calculated as the sum of free inositol, inositol phosphates, and inositol lipids.
Data analysis (V1a and V1b): concentration-inhibition experiments. Concentration-response curves for AVP and concentration-inhibition curves for test agents versus 10 nM AVP were analyzed by nonlinear least-squares curve-fitting to a 4-parameter logistic function. Parameters for basal and maximal inositol phosphates, EC50 or IC50, and Hill coefficient were varied to achieve the best fit. The curve-fitting was weighted under the assumption that the standard deviation was proportional to dpm of radioactivity. Full concentration-response curves for AVP were run in each experiment. […]

C57B1/6J males = assay: Social Interaction Test after chronic social subjugation; assay type: in vivo, mouse; settings: mice, 28-day treatment regimen
From the text: Mouse Chronic Subordination Model of Depression. Social stress is a factor in the etiology of several psychopathologies, with individuals differing in vulnerability. Adult male mice are subjected to a model of chronic psychosocial stress in which resident/intruder dyads live chronically in sensory contact and physically interact on a daily basis.
Anti-depressant Effect in the Social Interaction Test. […] A rapid subjugation paradigm in mice lead to diminished social interaction behavior, where the dependent measures are distance traveled and time in the Interaction Zone. […] These observations are consistent with the subordination/social interaction model as a rapid behavioral screen for potential antidepressants. Additional details are described in Berton et al. (2006).
Briefly, C57B1/6J males were defeated daily for 10 days by resident, highly aggressive CF-1 males. After 5 minutes of direct exposure, a perforated plastic partition was inserted into the cage that allowed olfactory and visual contact without physical defeat for the remaining 23 hr 55 min each day. The C57 males were exposed to a different resident male in a different cage each day to increase the stress of the procedure (it was observed that all CF-1 males attacked the intruder each day). At the end of the 10 day defeat procedure, the C57 males were tested in an open field apparatus during the dark phase. A dominant male was caged in an area of the open field apparatus termed the “social interaction zone.” Time and distance traveled in the zone were recorded. The C57 males were then divided randomly among the following treatments: AVN246-HCl (2 mg/kg), saline vehicle (0.45%), or chlordiazepoxide (10 mg/kg). Treatments were given daily (i.p.) for 28 days and the animals were retested. Behavioral changes were determined by calculating difference scores (Post-Pretest) and these scores were analyzed.

resident male rats = assay: Resident-Intruder Model of Stress and Aggression in Rats (neuroimaging); assay type: in vivo, rat; settings: awake resident male rats, 5 mg/kg
From the text: Resident-Intruder Model of Stress and Aggression in Rats. Neuroimaging is used to assess the blockade of stress/arousal with test compound compared to control. The effect of AVN251-HCl on functional circuitry was examined using the imaging method for awake rats. Additional details of the assay are described in Ferris et al. (2008).
Male rats in the company of a female cage mate will piloerect in the presence of a male intruder. This piloerection is a sign of stress and aggressive intent and is associated with activation of stress/arousal circuits in the brain. […] Resident male rats from six male:female pairs were imaged while fully awake. During a single imaging session, these males were treated with vehicle or AVN251-HCl (5 mg/kg).
The total volume of brain activation for resident males confronted with their mate alone, mate plus intruder, and mate plus intruder in the presence of AVN251-HCl can be viewed as 3D models. While there appears to be a general decrease in BOLD signal in major regions with AVN251-HCl treatment, sexual motivation, as assessed by the presentation of a novel receptive female, was unaffected by V1a receptor blockade.
Stress circuit activation in response to an intruder male is assessed by obtaining brain scans viewed from a caudal/dorsal perspective as translucent shells. The localization of activated voxels is mapped as 3D volumes of activation, which are composed of 10 subjects each. Once fully registered and segmented, the statistical responses for each subject are averaged on a voxel-by-voxel basis. Those averaged voxels exceeding a 2.0% threshold are shown in their appropriate spatial location. Functional images are acquired on awake rats at 4.7 T.
The 3D volumes of activation are composed from results obtained with 10 subjects in each condition. […] Particular olfactory systems measured included the anterior olfactory nucleus, olfactory tubercle, piriform cortex, n. laterial olfactory tract, and entrorhinal cortex. Particular dopaminergic systems measured included the prelimbic cortex, accumbens, ventral pallidum, medial dorsal thalamus, and ventral tegmentum.
Awake rats were imaged when presented with their mate+an intruder, a highly stressful stimulus.

male Long Evans rats = assay: Predatory fear conditioning model of PTSD (ferret/sucrose, fMRI of awake rats); assay type: in vivo, rat
From the text: The use of the compounds and compositions described herein for treating PTSD and stress-related affective illness is established using a model of predatory fear conditioning. The model uses fMRI data of rats exposed to a ferret, a natural predator, as the unconditioned stimulus while experiencing the taste of sucrose, which is highly rewarding, as the conditioned stimulus. The taste of sucrose becomes associated with the traumatic memory of the ferret. […] This hyperarousal pattern of brain activity in response to a stimulus associated with a traumatic memory is characteristic of PTSD. […] Thus, the memory of fear is worse than fear itself. Treatment with compounds and compositions described herein block the hyperarousal seen with the sucrose-associated traumatic memory in untreated animals. The compounds described herein are efficacious in a this new preclinical model of PTSD in rats that utilized predatory fear as the unconditioned stimulus and the taste of sucrose as the conditioned stimulus. […] Compounds described herein are also efficacious in established models of depression (social interaction test), anxiety (Elevated Plus Maze, Light:Dark Shuttle Box), and aggression (resident:intruder test). The predatory fear conditioning juxtaposes an aversive unconditioned stimulus (threat of predation), with the taste of sucrose as the conditioned stimulus. During an imaging session, awake rats are exposed to a live, sable ferret placed into the bore of the magnet. This presentation of the predator is done with and without the application of sucrose to the tongue of the rat. Retrieval of the memory weeks later by the application of sucrose alone (as a Conditioned Stimulus) in the absence of the ferret elicits a robust increase in brain activity that far exceeds the initial presentation of the predator. […]

SMILES: CNCCC(Oc1ccc(C(F)(F)F)cc1)c1ccccc1 (stereo not shown) [fluoxetine]
effect on deficits in social interaction produced by chronic subordination (C57B1/6J males): reversed deficits produced by chronic subordination | effect on deficits in social interaction produced by chronic subordination (C57B1/6J males; listed as Fluoxetine): produced comparable improvements | sexual motivation (reward circuit activation by novel receptive female) (resident male rats): markedly diminished activation of this circuit

SMILES: C[C@@H](NC(=O)[C@@H](CC(=O)N1CCC(N2CCCCC2)CC1)N1C(=O)[C@@H](N2C(=O)OC[C@@H]2c2ccccc2)[C@H]1/C=C/c1cccc(I)c1)c1ccccc1 [Example 266]
retrieval of predatory fear memory (male Long Evans rats): effective in blocking retrieval of predatory fear memory | predatory fear response in the unconditioned test animal (activation for ferret alone) (male Long Evans rats; pretreatment 5 mg/kg body weight): retained | hyperarousal brain activation pattern (BOLD) on re-exposure to sucrose alone (male Long Evans rats; pretreatment 5 mg/kg body weight, two weeks after conditioning, listed as AVN576): blocked the hyperarousal brain activation pattern; also recorded: significantly reduces brain activation

SMILES: O=C(NCc1cccc(C(F)(F)F)c1)C(CC(=O)N1CCC(N2CCCCC2)CC1)N1C(=O)C(N2C(=O)OCC2c2ccccc2)C1C=Cc1ccccc1 (stereo not shown) [Example 44]
agonist or antagonist character (inhibition of vasopressin-mediated phosphatidylinositol turnover) (human V1a receptor): vasopressin V1a antagonists

SMILES: O=C(NCc1cccc(C(F)(F)F)c1)[C@H](CCC(=O)N1CCN(CCc2ccccc2)CC1)N1C(=O)[C@@H](N2C(=O)OC[C@@H]2c2ccccc2)[C@H]1C=Cc1ccccc1 (single isomer, unassigned) [Example 35]
agonist or antagonist character (inhibition of vasopressin-mediated phosphatidylinositol turnover) (human V1a receptor): vasopressin V1a antagonists

Next, values leading:

agonist or antagonist character (inhibition of vasopressin-mediated phosphatidylinositol turnover) (human V1a receptor): vasopressin V1a antagonists
SMILES: O=C(NCc1cccc(C(F)(F)F)c1)C(CCC(=O)N1CCC(N2CCCCC2)CC1)N1C(=O)C(N2C(=O)OCC2c2ccccc2)C1C=Cc1ccccc1 (stereo not shown) [Example 88]

agonist or antagonist character (inhibition of vasopressin-mediated phosphatidylinositol turnover) (human V1a receptor): vasopressin V1a antagonists
SMILES: O=C(NCc1cccc(C(F)(F)F)c1)C(CCC(=O)N1CCN(C2CCCCC2)CC1)N1C(=O)C(N2C(=O)OCC2c2ccccc2)C1C=Cc1ccccc1 (single isomer, unassigned) [Example 110]
